This is an account of results in ChEMBL document CHEMBL4354814 (J Med Chem, 2019).

The target in experiment [1] is T1, Cannabinoid receptor 2 (Homo sapiens, UniProt P34972). The experiment is described as follows: Agonist activity at CB2R in human U266 cells assessed as reduction in STAT3 gene expression at 50 uM incubated for 2 hrs by qRT-PCR analysis. Type of experiment: cell-based.
The target of experiment [2] is T1, Cannabinoid receptor 2. Put plainly: Agonist activity at CB2R in human U266 cells assessed as reduction in MIF gene expression at 50 uM incubated for 2 hrs by qRT-PCR analysis. The format is cell-based. A general note: Real-time PCR tracks product formation cycle by cycle.
Experiment [3] deals with T2, Acetylcholinesterase (Homo sapiens, UniProt P22303).
T2 sequence (P22303 whole entry): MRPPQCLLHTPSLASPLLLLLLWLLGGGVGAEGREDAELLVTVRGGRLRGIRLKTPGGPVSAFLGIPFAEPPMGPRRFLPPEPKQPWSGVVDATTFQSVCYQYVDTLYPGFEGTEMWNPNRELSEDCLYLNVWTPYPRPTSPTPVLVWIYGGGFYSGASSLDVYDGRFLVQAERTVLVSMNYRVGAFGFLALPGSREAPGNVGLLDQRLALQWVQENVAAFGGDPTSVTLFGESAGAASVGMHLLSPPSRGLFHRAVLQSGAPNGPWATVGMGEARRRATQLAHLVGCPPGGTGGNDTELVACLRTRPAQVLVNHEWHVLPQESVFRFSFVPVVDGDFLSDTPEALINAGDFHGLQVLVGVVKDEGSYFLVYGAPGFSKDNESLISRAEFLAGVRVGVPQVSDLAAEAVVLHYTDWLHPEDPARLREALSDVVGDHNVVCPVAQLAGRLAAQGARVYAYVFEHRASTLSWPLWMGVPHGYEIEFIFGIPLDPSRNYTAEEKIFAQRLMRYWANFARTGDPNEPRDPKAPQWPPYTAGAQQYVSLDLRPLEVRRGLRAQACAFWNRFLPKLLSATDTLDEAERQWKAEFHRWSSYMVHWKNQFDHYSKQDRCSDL
Description: Inhibition of recombinant human AChE assessed as inhibition constant for enzyme-substrate-inhbitor complex using acetylthiocholine iodide as substrate preincubated for 20 mins followed by substrate addition and measured for 3 mins by spectrophotometry based Lineweaver-Burk plot analysis
The target of experiment [4] is T1, Cannabinoid receptor 2. Put plainly: Agonist activity at human CB2R expressed in CHO-K1 cells assessed as increase in intracellular calcium mobilization by calcein4-AM dye based fluorescence assay relative to control. The format is functional, cell-based.
The target in experiment [5] is Cannabinoid receptor 1 (Homo sapiens) (UniProt P21554). The experiment is described as follows: Agonist activity at human CB1R expressed in CHO-K1 cells assessed as increase in intracellular calcium mobilization by calcein4-AM dye based fluorescence assay. Type of experiment: functional, cell-based.
Cannabinoid receptor 1 (Homo sapiens), sequence (P21554 whole entry): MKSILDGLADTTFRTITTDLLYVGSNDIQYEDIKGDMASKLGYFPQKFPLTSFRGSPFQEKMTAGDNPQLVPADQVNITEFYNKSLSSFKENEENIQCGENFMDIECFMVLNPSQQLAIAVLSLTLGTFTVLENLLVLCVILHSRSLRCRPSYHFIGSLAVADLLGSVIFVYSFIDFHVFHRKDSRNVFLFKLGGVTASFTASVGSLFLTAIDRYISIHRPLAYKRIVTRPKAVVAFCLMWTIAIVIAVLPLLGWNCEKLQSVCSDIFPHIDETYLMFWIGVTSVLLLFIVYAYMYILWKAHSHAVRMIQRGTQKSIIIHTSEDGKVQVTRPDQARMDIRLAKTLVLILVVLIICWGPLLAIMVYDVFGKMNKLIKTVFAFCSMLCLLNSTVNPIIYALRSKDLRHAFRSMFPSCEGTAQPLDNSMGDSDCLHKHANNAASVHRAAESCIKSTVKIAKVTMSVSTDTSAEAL
For experiment [6], the target named is T2, Acetylcholinesterase. This is another data set of the same source.
Description: Inhibition of recombinant human AChE assessed as inhibition constant for enzyme-inhibitor complex using acetylthiocholine iodide as substrate preincubated for 20 mins followed by substrate addition and measured for 3 mins by spectrophotometry based Lineweaver-Burk plot analysis
In experiment [7] the target is T1, Cannabinoid receptor 2. The experiment is described as follows: Agonist activity at CB2R in human U266 cells assessed as reduction in MIF gene expression at 50 uM pretreated for 30 mins with AM630 and incubated for 2 hrs by qRT-PCR analysis. The format is cell-based.
Experiment [8] has as its target T1, Cannabinoid receptor 2. The experiment is described as follows: Agonist activity at CB2R in human U266 cells assessed as reduction in STAT3 gene expression at 50 uM pretreated for 30 mins with AM630 incubated for 2 hrs by qRT-PCR analysis. Type of experiment: cell-based.
Experiment [9] concerns the target T1, Cannabinoid receptor 2. The experiment is described as follows: biochemical.
Experiment [10] concerns the target T2, Acetylcholinesterase. Put plainly: Inhibition of recombinant human AChE at 10 uM using acetylthiocholine iodide as substrate preincubated for 20 mins followed by substrate addition and measured for 3 mins by spectrophotometry based Ellman's method relative to control. In general terms: DTNB colorimetry detects thiols as they appear.
Experiment [11] concerns the target Cannabinoid receptor 1 (Homo sapiens) (UniProt P21554). The experiment is described as follows: Binding affinity at human CB1R expressed in CHO cells at 10 uM incubated for 3 hrs by microbeta scintillation counting relative to control. Type of experiment: cell-based.
Experiment [12] deals with Cholinesterase (Homo sapiens) (UniProt P06276). The experiment is described as follows: Inhibition of human BChE at 10 uM using butyrylthiocholine iodide as substrate preincubated for 20 mins followed by substrate addition and measured for 3 mins by spectrophotometry based Ellman's method relative to control.
Cholinesterase (Homo sapiens), sequence (P06276 whole entry): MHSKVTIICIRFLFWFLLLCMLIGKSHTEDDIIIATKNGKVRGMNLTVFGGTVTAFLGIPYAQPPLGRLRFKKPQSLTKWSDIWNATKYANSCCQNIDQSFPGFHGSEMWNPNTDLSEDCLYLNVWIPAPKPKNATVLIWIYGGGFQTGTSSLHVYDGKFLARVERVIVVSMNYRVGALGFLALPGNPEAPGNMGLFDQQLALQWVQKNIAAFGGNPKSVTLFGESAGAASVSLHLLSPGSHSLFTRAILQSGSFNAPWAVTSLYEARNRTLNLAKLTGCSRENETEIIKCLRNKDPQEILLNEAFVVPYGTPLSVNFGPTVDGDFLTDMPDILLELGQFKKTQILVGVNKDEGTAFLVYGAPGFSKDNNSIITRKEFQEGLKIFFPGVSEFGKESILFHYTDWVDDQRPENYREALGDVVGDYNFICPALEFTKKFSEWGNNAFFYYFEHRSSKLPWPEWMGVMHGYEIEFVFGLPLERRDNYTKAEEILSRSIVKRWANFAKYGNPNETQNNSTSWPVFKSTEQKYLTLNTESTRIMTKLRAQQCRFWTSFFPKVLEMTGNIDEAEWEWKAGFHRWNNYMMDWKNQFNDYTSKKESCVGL
Experiment [13] has as its target T1, Cannabinoid receptor 2.

The source made the active and inactive calls. No cut-off for these calls is given here.

T1 sequence (P34972 whole entry): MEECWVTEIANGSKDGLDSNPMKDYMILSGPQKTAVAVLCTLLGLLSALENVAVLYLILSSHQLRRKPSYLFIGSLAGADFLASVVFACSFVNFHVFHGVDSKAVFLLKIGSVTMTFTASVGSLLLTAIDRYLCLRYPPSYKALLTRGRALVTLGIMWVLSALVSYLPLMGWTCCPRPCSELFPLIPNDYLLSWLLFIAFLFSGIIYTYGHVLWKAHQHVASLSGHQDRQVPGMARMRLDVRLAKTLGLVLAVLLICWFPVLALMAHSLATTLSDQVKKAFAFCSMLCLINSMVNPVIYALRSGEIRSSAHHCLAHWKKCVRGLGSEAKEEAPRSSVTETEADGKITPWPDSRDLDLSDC

The Ki is the dissociation constant of the complex between target and ligand, obtained from inhibition or displacement. Low values mean a stronger hold on the target, high ones a looser hold on the target. For orientation: Emax means the size of the effect at its maximum, as opposed to the concentration needed. With `CCOc1ccc(Cc2nc3cc(C(=O)N(CC)CC)ccc3n2CCCCCCNc2c3c(nc4ccccc24)CCCC3)cc1`, the result at Cannabinoid receptor 2 [1], at Cannabinoid receptor 2 [2], at Cannabinoid receptor 2 [7] and on Cannabinoid receptor 2 [8] was Active. For the same molecule, the Ki was found to be 0.206 µM on Acetylcholinesterase [3] and 0.0885 µM at Acetylcholinesterase [6]. Moreover, the Emax on Cannabinoid receptor 2 [4] was 51%. Moreover, in experiment [5], the outcome was inactive.

On to `CCOc1ccc(Cc2nc3cc(C(=O)N(CC)CC)ccc3n2CCCNc2c3c(nc4ccccc24)CCCC3)cc1`, for which the Ki on Cannabinoid receptor 2 [9] was found to be 30.7 µM.

By inhibition is commonly meant how much of the control response was suppressed. In the case of `CCOc1ccc(Cc2nc3cc(C(=O)N(CC)CC)ccc3n2CCC(C)C)cc1`, the inhibition (on Acetylcholinesterase [10]; in [12]) was under 10% in each case. The result at Cannabinoid receptor 2 [1], on Cannabinoid receptor 2 [2], on Cannabinoid receptor 2 [7] and on Cannabinoid receptor 2 [8] was Active. The molecule also gave an Activity in experiment [11] of 24%.

What is called EC50 is the concentration giving half of the maximal effect. Higher therefore signals weaker potency. `CCOc1ccc(Cc2nc3cc(C(=O)NCCCCNc4c5c(nc6ccccc46)CCCC5)ccc3n2CCC(C)C)cc1`: the result at Cannabinoid receptor 2 [1], on Cannabinoid receptor 2 [2], at Cannabinoid receptor 2 [7] and on Cannabinoid receptor 2 [8] was Active. Moreover, the EC50 at Cannabinoid receptor 2 [13] is 0.911 µM. Further, at Cannabinoid receptor 2 [4], the Emax was 39%. In addition, the result in experiment [5] was inactive.

For the molecule `CCOc1ccc(Cc2nc3cc(C(=O)NCCOCCOCCNc4c5c(nc6ccccc46)CCCC5)ccc3n2CCC(C)C)cc1`, the outcome on Cannabinoid receptor 2 [1], at Cannabinoid receptor 2 [2], on Cannabinoid receptor 2 [7] and at Cannabinoid receptor 2 [8] was Active.

In the case of `CCOc1ccc(Cc2nc3cc(C(=O)NCCSSCCNc4c5c(nc6ccccc46)CCCC5)ccc3n2CCC(C)C)cc1`, the Ki on Acetylcholinesterase [3] worked out at 0.0279 µM; at Acetylcholinesterase [6], 0.0167 µM.
